Reference: PubChem BioAssay (NCI)
Several values for one entry are separate records, joined by “and”; a condition that tells them apart may be missing. Identical values can stand only once.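 The compound was tested at five concentrations on cells cultured in 96-well plates, with a 48-hour exposure period. Here, GI50 denotes the concentration required for 50% inhibition of growth. The concentration for full growth arrest is given as TGI.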

Key:
Experiment in all cases: NCI-60 cell line screen, 48 h
NCI-H460 lung = test system: NCI-H460 lung
TK-10 renal = test system: TK-10 renal
MALME-3M melanoma = test system: MALME-3M melanoma
CCRF-CEM leukemia = test system: CCRF-CEM leukemia
MCF7 breast = test system: MCF7 breast
SF-268 CNS = test system: SF-268 CNS
NCI/ADR-RES ovarian = test system: NCI/ADR-RES ovarian
MDA-MB-231 breast = test system: MDA-MB-231 breast
SK-MEL-28 melanoma = test system: SK-MEL-28 melanoma
HCC-2998 colon = test system: HCC-2998 colon

| Compound | GI50 (NCI-H460 lung) [µM] | TGI (NCI-H460 lung) | GI50 (TK-10 renal) [µM] | TGI (TK-10 renal) | GI50 (MALME-3M melanoma) [µM] | TGI (MALME-3M melanoma) | GI50 (CCRF-CEM leukemia) [µM] | TGI (CCRF-CEM leukemia) [µM] | GI50 (MCF7 breast) [µM] | TGI (MCF7 breast) | GI50 (SF-268 CNS) [µM] | TGI (SF-268 CNS) | GI50 (NCI/ADR-RES ovarian) [µM] | TGI (NCI/ADR-RES ovarian) [µM] | GI50 (MDA-MB-231 breast) [µM] | TGI (MDA-MB-231 breast) | GI50 (SK-MEL-28 melanoma) [µM] | TGI (SK-MEL-28 melanoma) | GI50 (HCC-2998 colon) [µM] | TGI (HCC-2998 colon) |
| --- | --- | --- | --- | --- | --- | --- | --- | --- | --- | --- | --- | --- | --- | --- | --- | --- | --- | --- | --- | --- |
| CCCCCSc1ccc2nc(NC(=O)OCC)sc2c1 | 0.523 | > 100 µM | 2.25 | 52.8 µM | 0.514 | > 100 µM | 0.628 | > 100 | 0.3 | > 100 µM | 0.866 | > 100 µM | 0.357 | 3.82 | 0.95 | > 100 µM | 66.2 | > 100 µM | 4.88 | > 100 µM |
| COc1ccc(C2c3ccc4ccccc4c3Oc3ncn(CCCn4ccnc4)c(=N)c32)cc1OC (stereo unspecified) | 3.65 | 13.2 µM | 4 | 14.4 µM | 2.12 | 3.89 µM | 2.52 | 6.9 | 3.11 | 12.3 µM | 3.52 | 13.8 µM | 3.96 | 17.4 | 2.44 | 8.01 µM | 1.79 | 3.5 µM | 3.45 | 11.2 µM |
| CC(=O)OCC1OC(SC2=N/C(=C\c3ccc(Br)s3)C(=O)N2c2ccccc2)C(OC(C)=O)C(OC(C)=O)C1OC(C)=O (stereo unspecified) |  | > 100 µM |  | > 100 µM |  | > 100 µM |  |  |  | > 100 µM |  | > 100 µM |  | > 100 |  | > 100 µM |  | > 100 µM |  | > 100 µM |
| CC(=O)O[C@@H]1c2c(c3c(=O)c4cccc(O)c4c(=O)c=3c2=[N+]=[N-])[C@H](OC(C)=O)[C@@H](OC(C)=O)[C@]1(C)O | 0.149 | 1.9 µM and 0.352 µM | 0.191 | 1.14 µM and 0.365 µM | 0.269 | 0.929 µM and 0.972 µM |  | 0.0632 | 0.142 | 1.11 µM and 0.291 µM | 0.391 | 0.914 µM and 1.67 µM |  | 0.658 | 0.335 | 1.46 µM and 1.48 µM | 0.829 | 1.51 µM and 2.28 µM | 0.358 | 0.522 µM and 1.22 µM |
| O=C1CN=C(c2ccc[nH]2)c2cc(Cl)ccc2N1 | 4.38 | > 100 µM | > 100 | > 100 µM | > 100 | > 100 µM | 30.6 | > 100 | > 100 | > 100 µM | > 100 | > 100 µM | 57.4 | > 100 | > 100 | > 100 µM | > 100 | > 100 µM | > 100 | > 100 µM |
| CCCCCCCCCCCCCCCCn1cc[n+](C)c1 | 0.486 | 1.83 µM | 0.254 | 0.929 µM | 0.357 | 1.51 µM | 0.139 | 0.512 | 0.367 | 1.52 µM | 0.837 | 2.12 µM | 1.95 | 18.4 | 0.814 | 2.23 µM | 0.707 | 2.05 µM | 0.277 | 1.13 µM |
| CN1CCc2ccccc2C1Cc1ccccc1NC(=O)c1sc2ccccc2c1Cl (stereo unspecified) |  | > 100 µM |  | > 100 µM |  | > 100 µM |  | > 100 |  | > 100 µM |  | > 100 µM |  | > 100 |  | > 100 µM |  | > 100 µM |  | > 100 µM |
| c1cc(OCCN2CCCC2)ccc1CNc1ccc2nc(CCC3CCCCC3)[nH]c2c1 | 2.13 | 4.87 µM | 2.98 | 7.97 µM | 1.57 | 3.07 µM | 1.47 | 6.9 | 1.63 | 4.66 µM | 1.82 | 4.38 µM | 2.76 | 10.7 | 1.61 | 3.19 µM |  |  | 2.03 | 4.29 µM |
| COC(=O)[C@H](Cc1cn(C)cn1)NC(=O)[C@H](CC(C)C)NC(=O)Nc1cc(C(F)(F)F)cc(C(F)(F)F)c1 | > 10 | > 10 µM | > 10 | > 10 µM | > 10 | > 10 µM |  |  | 2.52 | 7.76 µM | 3.16 | > 10 µM | > 10 | > 10 | 4.64 | > 10 µM | 8 | > 10 µM | 5.62 | > 10 µM |
| CCOC(=O)Cc1csc(NC(=O)C(OC(=O)c2ccc(Cl)cc2)c2ccccc2)n1 (stereo unspecified) | 36.1 | > 100 µM | > 100 | > 100 µM | 47.9 | > 100 µM |  |  | 34 | > 100 µM | 28.7 | > 100 µM | 41.1 | > 100 | 31.7 | > 100 µM | 25.2 | 69.2 µM | 50.9 | > 100 µM |
| CCCCCN(CCCCC)CCC[C@@H](C)[C@H]1CC[C@H]2[C@@H]3[C@H](OCCCN)C[C@@H]4C[C@H](OCCCN)CC[C@]4(C)[C@H]3C[C@H](OCCCN)[C@]12C | 2.79 | 17.3 µM |  |  | 4.8 | 17.7 µM | 4.47 | 20.5 | 14.5 | 34.7 µM | 13.6 | 31.5 µM | 12.1 | 37.7 | 4.41 | 19.7 µM | 2.46 | 12.5 µM | 7.98 | 24.9 µM |
| Cc1ccc(/C(=N/NS(=O)(=O)c2cc(C)c(Cl)cc2Cl)Sc2cc(Cl)c(C)cc2S(N)(=O)=O)cc1 | > 100 | > 100 µM | > 100 | > 100 µM | 63.6 | > 100 µM | > 100 | > 100 | > 100 | > 100 µM | > 100 | > 100 µM | > 100 | > 100 | > 100 | > 100 µM | > 100 | > 100 µM |  |  |
| N#Cc1c(N)nc2c(c1-c1ccc(Cl)cc1)COc1ccc(F)cc1-2 | 37.1 | > 100 µM | 34.7 | > 100 µM | 40.3 | 81.7 µM | 44.2 | > 100 | 17.9 | > 100 µM | 37.1 | > 100 µM | 22.9 | 54.6 | 11.9 | 51.8 µM |  |  | 23.3 | 68.8 µM |
| COc1cccc(S(=O)(=O)NC2=NCCN2C(=S)SN2CCn3c2nsc3=S)c1 | 58.3 | > 100 µM | 34.4 | 81.5 µM |  |  | 32.1 | > 100 | 39.4 | > 100 µM | 59.3 | > 100 µM | 52.4 | > 100 | 28.1 | 96 µM | 31.4 | 74.2 µM | 41.5 | > 100 µM |
| CCNCC(=O)Nc1ccc2c(c1)C(=O)c1ccc(NC(=O)CNCC)cc1C2=O |  |  |  | 18.7 µM |  | 33 µM |  | > 100 |  | 5.6 µM |  | 16.6 µM |  | 28.3 |  | 9.88 µM |  | 19.2 µM |  | 3.75 µM |
| COC(=O)CCc1n(Cc2ccc3ccccc3c2)c2ccccc2[n+]1Cc1ccc2ccccc2c1 | 1.18 | 2.7 µM | 1.49 | 2.96 µM | 1.05 | 2.63 µM |  |  | 0.795 | 2.34 µM | 1.38 | 2.99 µM | 18.7 | 65.1 | 0.682 | 2.19 µM | 0.8 | 2.46 µM | 0.91 | 2.43 µM |
| COc1ccc2c(n1)Sc1nc3ccccc3nc1N2 |  | > 100 µM |  | 80.1 µM |  | > 100 µM |  | > 100 |  | > 100 µM |  | > 100 µM |  | > 100 |  | 49.7 µM |  | > 100 µM |  |  |
| COc1cc2c3c(n(CCCN=[N+]=[N-])c(=O)c2cc1OC)-c1ccc([N+](=O)[O-])cc1C3=O | 49.5 | > 100 µM | > 100 | > 100 µM | > 100 | > 100 µM | 38.7 | > 100 | 27.9 | > 100 µM | 33.4 | > 100 µM | 80 | > 100 | 20.3 | > 100 µM | > 100 | > 100 µM |  |  |
| Cc1cccc2c(=O)c3c(sc12)c(NCCCNCCO)nc1ccccc13 | 1.15 | 2.55 µM |  |  | 1.81 | 3.5 µM | 1.57 | 3.31 | 1.33 | 2.87 µM | 1.4 | 2.97 µM | 1.73 | 3.26 | 1.6 | 3.13 µM | 1.73 | 3.18 µM | 1.58 | 3.06 µM |
| CCCCCCOC(=O)CC1=C(C)/C(=C/c2[nH]c(-c3ccc[nH]3)cc2OC)N=C1C | 0.355 | 1.39 µM | 0.108 | 1.38 µM | 0.345 | 1.44 µM | 0.0256 | 1.56 | 0.0961 | 1.38 µM | 0.0818 | 2 µM | 0.135 | 1.33 | 0.0336 | 0.626 µM |  |  |  |  |
